For data set [1], the system named is S. aureus strain ATCC12600. As to the kind of experiment: MIC assay (broth microdilution) against S. aureus ATCC12600. It is filed as cell-based, Staphylococcus aureus. As to conditions: S. aureus ATCC12600, 24 h, 37° C. The source says:
FIGS. 2A-2E. Design, physicochemical features and activity of Pol-CP—NH2 and Ala-scan analogs. FIG. 2A. Theoretical physicochemical properties of interest of the wild type and Ala-scan analogs, where H denotes hydrophobicity, μH is the hydrophobic moment, q represents the net charge and P/N is the ratio of polar/non-polar residues in the sequence. Top to bottom, left to right the sequences correspond to SEQ ID NOs: 1-13. FIG. 2B. Schematic of the in vitro biological activity experimental design. Briefly, 10^4 bacterial cells and serially diluted peptides (0-128 μmol L^−1) were added to a 96-well plate and incubated at 37° C. One day after the exposure, the solution in each well was measured in a microplate reader (600 nm) to check inhibition of bacteria compared to the untreated controls and presented as heat maps of antimicrobial activities (μmol L^−1) against four bacteria strains: E. coli strain BL21, S. aureus strain ATCC12600 and P. aeruginosa strains PA01, and PA14. Assays were performed in triplicates. FIG. 2C. Graph correlating MIC (μmol L^−1) averages vs H and (FIG. 2D) MIC (μmol L^−1) averages vs μH, where dots […] the dashed line show peptides with higher activity compared to the wild type, in which one can observe ranges of optimal activity in determined intervals of H and μH values. FIG. 2E. […]
(Dilution methods test growth across graded concentrations, often in twofold steps.)

Data set [2] in a line: Stability assay in fetal bovine serum. Conditions: fetal bovine serum, 6 h. It is filed as in vitro ADME. As to the method:
FIGS. 6A-6B. Hemolysis and resistance to protease-mediated degradation of engineered peptides. FIG. 6A. Schematic of experimental design and hemolytic assay results of Pol-CP—NH2 and derivatives, where hemolytic activity was evaluated by incubating the peptides (0.1-100 μmol L^−1) with human red blood cells in PBS at room temperature for 1 h. Experiments were performed in triplicate, (*p<0.05). FIG. 6B. Resistance to degradation of Pol-CP—NH2 and analogs exposed to fetal bovine serum (FBS) proteases for 6 h. Experiments were done in triplicate.
Stability Assays. The stability assay was performed with GIBCO fetal bovine serum diluted to 25% in water. 20 ? L of a 10 mg mL^−1 peptide solution was added to 1 mL 25% serum solution and kept at 37° C. The experiments were made in triplicate and 100 ? L aliquots were taken at 0, 0.5, 1, 2, 4 and 6 h. 10 ? L of TFA was added to the aliquots and the new solution was kept at 5° C. for 10 min, after that it was centrifuged at 14,000 rpm for 15 min, according to Powell et al. (Powell M. F. et al., Pharm. Res. 10, 1268-1273 (1993)). The reaction kinetics was followed by liquid chromatography and the percentage of remaining peptide was calculated by integrating the peptide peak area.

In general, MIC refers to the lowest concentration that inhibits growth of the organism. The low end stands for inhibition by little substance, the high end for a need for much substance. In data set [1], “H-ILGTILGLLKSL-NH2 [WT, ILGTILGLLKSL-NH2, reference compound]” returned an MIC of 64.0 µM.

Turning to “H-ILGTILKLLKSL-NH2 [Peptide 16, ILGTILKLLKSL-NH2]”, in data set [2], the “resistance to protease-mediated degradation” value is recorded as “increased resistance to protease-mediated degradation”.

Source of the values: patent US20210347823A1, “METHODS OF PHYSICOCHEMICAL-GUIDED PEPTIDE DESIGN AND NOVEL PEPTIDES DERIVED THEREFROM” (Massachusetts Institute of Technology, priority 2018, published 2021).
